Laboratory results as given in ChEMBL document CHEMBL4622874, “Discovery of ORN0829, a potent dual orexin 1/2 receptor antagonist for the treatment of insomnia” (Bioorg Med Chem, 2020).

Tests used:
[1] = molecular target: T1, Orexin/Hypocretin receptor type 1 (Homo sapiens, UniProt O43613); experiment: Antagonist activity at human recombinant OX1R expressed in CHOK1 cells assessed as inhibition of orexin A-induced intracellular Ca2+ release preincubated for 30 mins followed by orexin-A stimulation by Fluo4-AM dye based fluorescence analysis; format: functional, cell-based, CHO-K1
T1 sequence (O43613 whole entry): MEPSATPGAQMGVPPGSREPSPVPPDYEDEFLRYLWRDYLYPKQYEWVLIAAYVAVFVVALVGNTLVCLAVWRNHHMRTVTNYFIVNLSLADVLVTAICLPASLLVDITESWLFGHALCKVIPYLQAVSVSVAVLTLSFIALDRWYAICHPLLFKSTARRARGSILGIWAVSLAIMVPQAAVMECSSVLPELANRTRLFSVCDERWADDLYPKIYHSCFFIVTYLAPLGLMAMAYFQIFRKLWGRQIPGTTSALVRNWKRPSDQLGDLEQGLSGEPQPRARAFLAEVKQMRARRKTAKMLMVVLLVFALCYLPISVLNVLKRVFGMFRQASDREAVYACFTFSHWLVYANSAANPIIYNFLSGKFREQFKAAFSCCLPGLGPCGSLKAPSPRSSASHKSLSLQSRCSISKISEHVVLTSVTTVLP

[2] = Drug metabolism in human liver microsomes incubated for 15 mins; format: ADME, Microsome; settings: read-out: Drug metabolism
[3] = Lipophilicity, log D of the compound at pH 7.4 by HPLC analysis; format: physicochemical; settings: buffer
Orexin receptor type 2 = molecular target: T2, Orexin receptor type 2 (Homo sapiens, UniProt O43614); experiment: Antagonist activity at human recombinant OX2R expressed in CHOK1 cells assessed as inhibition of orexin A-induced intracellular Ca2+ release preincubated for 30 mins followed by orexin-A stimulation by Fluo-4AM dye based fluorescence analysis; format: functional, cell-based, CHO-K1
T2 sequence (O43614 whole entry): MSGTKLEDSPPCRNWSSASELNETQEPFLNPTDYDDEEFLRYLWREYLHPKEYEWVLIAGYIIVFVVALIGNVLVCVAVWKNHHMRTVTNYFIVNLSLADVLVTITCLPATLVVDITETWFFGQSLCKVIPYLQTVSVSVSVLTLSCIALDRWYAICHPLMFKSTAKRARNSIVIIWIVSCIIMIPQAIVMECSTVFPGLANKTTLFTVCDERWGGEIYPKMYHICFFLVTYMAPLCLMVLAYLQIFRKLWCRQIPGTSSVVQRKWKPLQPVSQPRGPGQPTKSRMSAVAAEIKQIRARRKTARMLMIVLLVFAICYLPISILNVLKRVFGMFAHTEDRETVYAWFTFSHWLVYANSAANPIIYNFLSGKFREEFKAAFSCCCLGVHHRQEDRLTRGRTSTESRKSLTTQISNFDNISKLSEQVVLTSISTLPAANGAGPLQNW

P-gp (ABCB1) = P-gp (ABCB1) (Homo sapiens, UniProt P08183); experiment: Substrate activity at P-gp (unknown origin) assessed as efflux ratio; format: ADME; settings: not told
Chain of P-gp (ABCB1) (P08183 whole entry): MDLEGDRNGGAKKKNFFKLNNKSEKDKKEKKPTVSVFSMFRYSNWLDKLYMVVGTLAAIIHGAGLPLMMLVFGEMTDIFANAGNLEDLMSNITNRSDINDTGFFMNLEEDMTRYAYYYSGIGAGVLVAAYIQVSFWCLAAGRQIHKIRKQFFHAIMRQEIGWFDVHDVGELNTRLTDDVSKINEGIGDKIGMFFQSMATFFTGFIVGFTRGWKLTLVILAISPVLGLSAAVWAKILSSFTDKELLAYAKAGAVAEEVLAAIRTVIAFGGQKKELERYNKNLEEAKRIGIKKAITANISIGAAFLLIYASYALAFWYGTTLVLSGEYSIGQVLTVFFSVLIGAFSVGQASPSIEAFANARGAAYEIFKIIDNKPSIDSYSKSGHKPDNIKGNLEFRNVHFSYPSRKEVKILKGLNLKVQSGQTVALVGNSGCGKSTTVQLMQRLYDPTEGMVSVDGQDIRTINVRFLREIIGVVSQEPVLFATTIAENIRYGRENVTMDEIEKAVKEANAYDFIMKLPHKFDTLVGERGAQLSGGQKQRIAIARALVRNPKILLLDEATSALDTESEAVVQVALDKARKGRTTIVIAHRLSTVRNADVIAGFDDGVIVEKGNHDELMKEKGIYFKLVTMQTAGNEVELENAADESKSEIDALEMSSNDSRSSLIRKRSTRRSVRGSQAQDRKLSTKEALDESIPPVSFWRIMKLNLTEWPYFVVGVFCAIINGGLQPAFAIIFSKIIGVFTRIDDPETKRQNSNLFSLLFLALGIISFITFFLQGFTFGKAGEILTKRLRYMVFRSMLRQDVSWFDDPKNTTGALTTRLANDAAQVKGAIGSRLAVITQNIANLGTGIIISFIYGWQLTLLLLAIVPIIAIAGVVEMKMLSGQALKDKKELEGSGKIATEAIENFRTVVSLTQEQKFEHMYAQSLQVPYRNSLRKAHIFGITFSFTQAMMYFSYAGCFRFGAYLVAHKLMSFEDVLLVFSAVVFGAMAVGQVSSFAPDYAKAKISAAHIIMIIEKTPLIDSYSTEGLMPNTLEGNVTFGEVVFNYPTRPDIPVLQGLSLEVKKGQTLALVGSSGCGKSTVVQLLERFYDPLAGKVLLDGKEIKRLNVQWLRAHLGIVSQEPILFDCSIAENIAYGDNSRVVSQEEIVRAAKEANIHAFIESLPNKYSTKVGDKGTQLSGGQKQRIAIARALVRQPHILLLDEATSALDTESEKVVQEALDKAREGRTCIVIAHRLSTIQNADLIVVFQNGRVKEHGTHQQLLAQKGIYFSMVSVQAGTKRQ

Cytochrome P450 3A4 = Cytochrome P450 3A4 (Homo sapiens, UniProt P08684); experiment: Time dependent inhibition of CYP3A4 (unknown origin); format: ADME
Chain of Cytochrome P450 3A4 (P08684 whole entry): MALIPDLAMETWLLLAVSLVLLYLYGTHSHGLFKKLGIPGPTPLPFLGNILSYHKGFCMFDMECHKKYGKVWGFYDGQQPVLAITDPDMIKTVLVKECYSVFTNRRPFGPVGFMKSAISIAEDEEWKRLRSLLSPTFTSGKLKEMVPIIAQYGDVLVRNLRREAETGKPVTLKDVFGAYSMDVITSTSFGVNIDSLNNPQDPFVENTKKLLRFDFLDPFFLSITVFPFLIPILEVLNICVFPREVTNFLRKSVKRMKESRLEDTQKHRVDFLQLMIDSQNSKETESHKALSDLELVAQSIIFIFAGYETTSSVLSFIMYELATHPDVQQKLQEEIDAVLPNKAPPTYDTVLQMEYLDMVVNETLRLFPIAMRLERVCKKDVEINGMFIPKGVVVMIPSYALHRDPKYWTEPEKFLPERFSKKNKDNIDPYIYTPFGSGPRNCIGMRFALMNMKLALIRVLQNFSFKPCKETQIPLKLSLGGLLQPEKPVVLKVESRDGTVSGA

[4] = molecular target: Voltage-gated inwardly rectifying potassium channel KCNH2 (Homo sapiens, UniProt Q12809); experiment: Inhibition of human ERG
Chain of Voltage-gated inwardly rectifying potassium channel KCNH2 (Q12809 whole entry): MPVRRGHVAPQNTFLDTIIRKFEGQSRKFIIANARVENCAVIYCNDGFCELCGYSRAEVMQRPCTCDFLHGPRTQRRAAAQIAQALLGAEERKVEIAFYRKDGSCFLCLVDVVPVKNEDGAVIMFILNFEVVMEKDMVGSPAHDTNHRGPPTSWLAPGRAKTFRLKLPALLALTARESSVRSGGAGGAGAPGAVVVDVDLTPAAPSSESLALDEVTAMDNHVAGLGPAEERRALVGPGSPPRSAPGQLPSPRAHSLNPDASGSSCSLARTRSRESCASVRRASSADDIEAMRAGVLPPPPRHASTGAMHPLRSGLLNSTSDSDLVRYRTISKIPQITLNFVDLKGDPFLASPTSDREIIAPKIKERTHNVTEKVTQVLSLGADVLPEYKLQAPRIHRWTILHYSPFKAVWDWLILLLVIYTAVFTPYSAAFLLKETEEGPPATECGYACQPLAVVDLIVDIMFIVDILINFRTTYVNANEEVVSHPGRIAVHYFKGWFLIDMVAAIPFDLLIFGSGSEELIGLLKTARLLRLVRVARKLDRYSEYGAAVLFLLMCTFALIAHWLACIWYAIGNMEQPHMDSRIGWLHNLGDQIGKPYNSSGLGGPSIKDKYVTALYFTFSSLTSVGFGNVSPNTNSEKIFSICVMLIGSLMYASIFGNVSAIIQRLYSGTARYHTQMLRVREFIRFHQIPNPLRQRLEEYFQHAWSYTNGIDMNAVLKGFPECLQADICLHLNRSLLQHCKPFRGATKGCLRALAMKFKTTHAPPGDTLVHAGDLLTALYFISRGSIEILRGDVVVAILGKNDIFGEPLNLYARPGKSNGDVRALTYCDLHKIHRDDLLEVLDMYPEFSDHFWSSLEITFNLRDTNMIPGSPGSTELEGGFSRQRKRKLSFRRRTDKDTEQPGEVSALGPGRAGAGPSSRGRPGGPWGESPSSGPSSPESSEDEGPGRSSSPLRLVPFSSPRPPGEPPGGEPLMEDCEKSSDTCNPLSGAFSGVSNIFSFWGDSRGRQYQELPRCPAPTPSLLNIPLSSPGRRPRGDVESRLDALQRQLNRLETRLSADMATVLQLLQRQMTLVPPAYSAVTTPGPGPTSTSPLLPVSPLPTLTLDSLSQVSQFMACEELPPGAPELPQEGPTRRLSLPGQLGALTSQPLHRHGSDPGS

| IC50 [1] [nM] | metabolised at 0.25 h [2] [%] | logD [3] | IC50 (Orexin receptor type 2) [nM] | efflux ratio (P-gp (ABCB1)) | inhibition (INH) (Cytochrome P450 3A4) | SMILES | inhibition (INH) [4] |
| --- | --- | --- | --- | --- | --- | --- | --- |
| 8.08 | 15.7 | 2.67 |  |  |  | Cc1ccc(-n2nccn2)c(C(=O)N2CCO[C@H]2Cn2ccc(-c3ccc(F)cn3)n2)c1 |  |
| 3.3 | 37.2 | 3.08 | 3.15 | 1.96 |  | Cc1ccc(-n2nccn2)c(C(=O)N2CCC[C@H]2Cn2ccc(-c3ccc(F)cn3)n2)c1 |  |
|  | 20.2 | 2.78 |  | 1.51 |  | CCN(CCn1ccc(-c2ccc(F)cn2)n1)C(=O)c1cc(C)ccc1-n1nccn1 |  |
| 2690 |  | 2.68 |  |  |  | Cc1ccc(-n2nccn2)c(C(=O)N2CCO[C@@H]2Cn2ccc(-c3ccc(F)cn3)n2)c1 |  |
| 3.95 | 43.2 | 2.46 | 1.96 | 2.64 |  | O=C(c1cc(F)ccc1-n1nccn1)N1CCCO[C@H]1Cn1ccc(-c2ccc(F)cn2)n1 |  |
| 4.6 | 73.7 | 3.08 | 13.1 | 1.13 |  | Cc1ccc(-n2nccn2)c(C(=O)N2CSC[C@H]2Cn2ccc(-c3ccc(F)cn3)n2)c1 |  |
| 61.1 | 53 | 3.51 | 2300 | 1.34 |  | Cc1ccc(-n2nccn2)c(C(=O)N2CCS[C@H]2Cn2ccc(-c3ccc(F)cn3)n2)c1 |  |
| 363 |  | 3.06 | 313 |  |  | Cc1ccc(-n2nccn2)c(C(=O)N2CCC[C@@H]2Cn2ccc(-c3ccc(F)cn3)n2)c1 |  |
| 149 | 18 | 2.52 | 133 | 1.65 |  | Cc1ccc(-n2nccn2)c(C(=O)N2COC[C@H]2Cn2ccc(-c3ccc(F)cn3)n2)c1 |  |
| 3.36 | 24.1 | 2.39 | 3.41 | 3.08 |  | Cc1ccc(-n2nccn2)c(C(=O)N2COCC[C@H]2Cn2ccc(-c3ccc(F)cn3)n2)c1 |  |
| 3.5 | 24.5 | 2.33 | 15 | 3.56 |  | Cc1ccc(-n2nccn2)c(C(=O)N2CCOC[C@H]2Cn2ccc(-c3ccc(F)cn3)n2)c1 |  |
| 20.8 |  | 2.95 | 52.4 |  |  | Cc1ccc(-n2nccn2)c(C(=O)N2CCCC[C@@H]2Cn2ccc(-c3ccc(F)cn3)n2)c1 |  |
| 2.27 | 51.9 | 2.96 | 1.64 | 1.63 |  | Cc1ccc(-n2nccn2)c(C(=O)N2CCCC[C@H]2Cn2ccc(-c3ccc(F)cn3)n2)c1 |  |

The remaining lines, values behind:

| SMILES | IC50 [1] [nM] | metabolised at 0.25 h [2] [%] | logD [3] | IC50 (Orexin receptor type 2) [nM] | efflux ratio (P-gp (ABCB1)) | inhibition (INH) (Cytochrome P450 3A4) | inhibition (INH) [4] |
| --- | --- | --- | --- | --- | --- | --- | --- |
| Cc1ccc(-n2nccn2)c(C(=O)N2CCCO[C@@H]2Cn2ccc(-c3ccc(F)cn3)n2)c1 | 344 |  | 2.56 | 274 |  |  |  |
| Cc1ccc(-c2ncccn2)c(C(=O)N2CCCO[C@H]2Cn2ccc(-c3ccc(F)cn3)n2)c1 | 3.29 | 26.3 | 2.36 | 3.18 | 6.74 |  |  |
| Cc1ccc(-n2nccn2)c(C(=O)N2CCCO[C@H]2Cc2cnn(-c3ccc(F)cn3)c2)c1 | 3.98 | 29.7 | 3.03 |  |  |  |  |
| Cc1ccc(-n2nccn2)c(C(=O)N2CCCO[C@H]2Cn2cc(-c3ccc(F)cc3)cn2)c1 | 2.21 | 24.8 | 3.15 |  |  | Active | Active |
| O=C(c1cc(F)ccc1-c1ncccn1)N1CCCO[C@H]1Cn1ccc(-c2ccc(F)cn2)n1 | 3.22 | 28.9 | 2.3 | 4.58 | 5.36 |  |  |
| O=C(c1ccccc1-n1nccn1)N1CCCO[C@H]1Cn1ccc(-c2ccc(F)cn2)n1 | 3.76 | 14.6 | 2.3 | 2.62 | 3.25 |  |  |
| Cc1ccc(-n2nccn2)c(C(=O)N2CCCO[C@H]2Cn2cc(-c3ccc(F)cn3)nn2)c1 | 12.1 | 4.3 | 2.38 | 3.07 | 4.97 |  |  |
| Cc1ccc(-n2nccn2)c(C(=O)N2CCCO[C@H]2Cc2noc(-c3ccc(F)cn3)n2)c1 | 4.54 | 19.5 | 2.53 | 3.6 | 3.06 |  |  |
| Cc1ccc(-n2nccn2)c(C(=O)N2CCCO[C@H]2Cn2ncn(-c3ccc(F)cn3)c2=O)c1 | 85.5 | 15.6 | 2.52 | 5.4 | 2.88 |  |  |
| Cc1ccc(-n2nccn2)c(C(=O)N2CCCO[C@H]2Cn2ncc(-c3ccc(F)cn3)n2)c1 | 2.9 | 16.4 | 2.8 | 1.88 | 1.38 |  |  |
| Cc1ccc(-n2nccn2)c(C(=O)N2CCCO[C@H]2Cn2cc(-c3ccc(F)cn3)cn2)c1 | 5.39 | 15.8 | 2.38 |  |  |  |  |
